Data set [1] has as its target T1, BLVRB (Homo sapiens, UniProt P30043).
T1 sequence (P30043 1-206): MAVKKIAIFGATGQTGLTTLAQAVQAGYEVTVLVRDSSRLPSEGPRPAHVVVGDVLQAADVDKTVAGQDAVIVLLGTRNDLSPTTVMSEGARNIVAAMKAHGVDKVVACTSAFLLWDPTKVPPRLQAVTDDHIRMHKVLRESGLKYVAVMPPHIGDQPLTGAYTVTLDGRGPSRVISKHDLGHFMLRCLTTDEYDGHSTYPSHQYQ
Put plainly: Isothermal titration calorimetry (ITC) of compound binding to BLVRB. As to conditions: for TΔS / ΔG / ΔH (enthalpy of the reaction) / N (stoichiometry) / contribution from entropy, of the total binding energy: 25 °C; for N (stoichiometry): single-site binding model; for Kd: read-out: KD (dissociation constant), 25 °C.

For data set [2], the system named is rats. As to conditions: chronic administration; cited from earlier work.
Data set [3] addresses T1, BLVRB. Put plainly: NMR titration (HSQC) experiments with 15N-labeled BLVRB. As to conditions: half-holo BLVRB 0.3 mM, ratio up to 1:10. Type of data set: binding. The procedure:
Ratio 1:0, 1:0.6, 1:1, 1:10 [Half-holo form of BLVRB (0.3 mM):phloxine B and erythrosin B].
(§1) The inhibition mechanism of these two compounds was investigated in physiological environment by NMR.
Protein-based NMR spectroscopy is one of the most well-suited methods to identify intermolecular interactions including small molecule and protein interactions. Further, protein-based NMR methods provide information on binding sites, which is of prime interest for optimizing small molecules. Therefore, HSQC experiments of ^15N-labeled BLVRB were performed by titrating increasing amounts of the subject compounds to monitor the chemical shift changes upon the binding of the compounds identified in the enzyme activity assay. In particular, Ser111 was previously identified as a key residue involved in the catalytic mechanism of BLVRB. […] Using the assignment, the chemical shift perturbations (CSPs) of BLVRB by each drug were extracted from the spectra and the binding site of each drug was identified based on the CSPs.
Half-holo form of BLVRB (with NADP^+) was used for NMR experiments. All the subject compounds were dissolved in DMSO-d6. NMR titration and 1D experiments were operated at a ^1H frequency of 800 MHz using a Bruker Avance spectrometer. All experiments were performed at 298 K and 5 mm diameter NMR tubes with a sample volume 500 μL were used.

In data set [4] the target is T1, BLVRB. Put plainly: Dynamic light scattering (DLS) of BLVRB with inhibitor. As to conditions: molar ratio 0, 1, 5, 10 compound/BLVRB.
From the text: FIGS. 2A and 2B show DLS results of BLVRB depending on the concentration of phloxine B (FIG. 2A) and erythorosin B (FIG. 2B). Molar ratio of the sample is 0, 1, 5, 10 [erythrosin B or phloxine B/BLVRB]. The horizontal axis represents the diameter of each drug on a logarithmic scale. The vertical axis represents the relative intensity of the signal.
as §1

Consider `O=C(O)c1cc(/N=N/c2ccc(S(=O)(=O)Nc3ccccn3)cc2)ccc1O` [Compound of formula 1], for which, in data set [1], the TΔS is -0.76 ± 0.07 kcal/mol, the ΔG was -8.67 ± 0.05 kcal/mol, the “ΔH (enthalpy of the reaction)” value is -9.43 ± 0.05 kcal/mol and the “N (stoichiometry)” value is given as 0.99. In data set [1], the Kd is 440 ± 40 nM.
For `CC1(C)CCC(C)(C)c2cc(NC(=O)c3ccc(C(=O)O)cc3)ccc21` [Compound of formula 3], in data set [1], the TΔS is reported as 3.50 ± 0.10 kcal/mol; the “contribution from entropy, of the total binding energy” value is on record as 44%; the ΔG was -7.99 ± 0.08 kcal/mol; the “ΔH (enthalpy of the reaction)” value is -4.49 ± 0.06 kcal/mol. Further, in data set [1], the “N (stoichiometry)” value is listed as 1.07 and the Kd was 1380 ± 180 nM.
`O=C(O)c1cccc(-c2noc(-c3ccccc3F)n2)c1` [Compound of formula 4]: in data set [1], the TΔS was -1.83 ± 0.09 kcal/mol, the ΔG was -9.13 ± 0.07 kcal/mol, the “ΔH (enthalpy of the reaction)” value is -10.96 ± 0.06 kcal/mol and the “N (stoichiometry)” value was 1.02. The Kd in data set [1] is 200 ± 20 nM.
In the same order, the values of `Cc1nc(-c2ccc(OCC(C)C)c(C#N)c2)sc1C(=O)O` [Compound of formula 5] are 2.14 ± 0.11 kcal/mol, -7.90 ± 0.08 kcal/mol, -5.75 ± 0.08 kcal/mol, 1.01 and 1630 ± 210 nM.
In the case of `O=C(O)c1ccc(-n2nc(-c3ccccc3O)nc2-c2ccccc2O)cc1` [Compound of formula 6], in data set [1], the TΔS is reported as 0.55 ± 0.12 kcal/mol, the ΔG was -7.87 ± 0.07 kcal/mol, the “ΔH (enthalpy of the reaction)” value was -7.32 ± 0.10 kcal/mol and the “N (stoichiometry)” value is recorded as 1.00. The Kd in data set [1] amounted to 1710 ± 210 nM.
The corresponding values for `Cc1c(Nc2ncccc2C(=O)O)cccc1C(F)(F)F` [Compound of formula 7] are 0.41 ± 0.07 kcal/mol, -8.95 ± 0.06 kcal/mol, -8.54 ± 0.04 kcal/mol, 0.99 and 270 ± 30 nM.
On to `O=C(O)c1cc2ccccc2c(Cc2c(O)c(C(=O)O)cc3ccccc23)c1O` [Compound of formula 8], for which, in data set [1], the TΔS is 1.08 ± 0.17 kcal/mol, the ΔG is -7.84 ± 0.10 kcal/mol, the “ΔH (enthalpy of the reaction)” value is -6.76 ± 0.13 kcal/mol and the “N (stoichiometry)” value amounted to 1.01. Besides, the Kd in data set [1] turned out to be 1800 ± 310 nM.
In the case of `O=C(O)c1ccccc1-c1c2cc(I)c(=O)c(I)c-2oc2c(I)c(O)c(I)cc12` [Erythrosin B, reference compound], the thyroid tumor promotion entry in data set [2] is “promote thyroid tumors in rats”. For the same compound, the “multimerization of BLVRB upon addition of compound” value in data set [3] was “induce multimerization of BLVRB”. In data set [1], the TΔS turned out to be 2.91 ± 0.13 kcal/mol; the “contribution from entropy, of the total binding energy” value was 31%; the ΔG was -9.28 ± 0.11 kcal/mol; the “ΔH (enthalpy of the reaction)” value was -6.38 ± 0.06 kcal/mol. In data set [1], the “N (stoichiometry)” value amounted to 1.04 and the Kd is 160 ± 30 nM. Further, the “size of BLVRB-inhibitor complex” value in data set [4] is recorded as “increase in the size of the BLVRB-inhibitor complex”.
Regarding `O=C([O-])c1c(Cl)c(Cl)c(Cl)c(Cl)c1-c1c2cc(Br)c(=O)c(Br)c-2oc2c(Br)c([O-])c(Br)cc12.[Na+].[Na+]` [Phloxine B, reference compound], in data set [3], the “multimerization of BLVRB upon addition of compound” value is “induce multimerization of BLVRB”. Further, in data set [1], the TΔS was determined as 4.12 ± 0.12 kcal/mol, the ΔG was -8.00 ± 0.10 kcal/mol, the “ΔH (enthalpy of the reaction)” value was -3.88 ± 0.06 kcal/mol and the “N (stoichiometry)” value is recorded as 0.99. In addition, in data set [1], the Kd is 1360 ± 220 nM. In addition, the “size of BLVRB-inhibitor complex” value in data set [4] is recorded as “increase in the size of the BLVRB-inhibitor complex”.
